Source: US20240108734A1, “METHODS FOR TREATING AND AMELIORATING CANCER” (The Regents of the University of California, priority 2021, published 2024)
“Also recorded” adds a separate entry of the source.

Tests used:
BC CML CD34+ cells (LSC) = assay: SL/M2 stromal co-culture, clonogenic survival and self-renewal (replating) assays, BC CML; type: cell-based, human; conditions: imetelstat monotherapy, 1 to 10 μM, vs mismatch control
Description: Lentiviral human wild-type and mutant ADAR1^E912A (pCDH-EF1-T2A-copGFP) and shRNA targeting ADAR1 were produced according to published protocols^27,37. In Vitro MPN-SPC and LSC Survival and Self-Renewal Assays with Imetelstat To assess MPN progenitor and LSC survival and self-renewal in vitro, human primary CD34^+ cells selected from BC CML (n=5), MF (n=9) or age matched normal bone marrow (a-NBM, n=4) were co-cultured with SL/M2 stromal cells for 7-14 days, and then treated with imetelstat alone or combined with dasatinib for BC CML or Pacritinib for MF. Colony forming and replating assays were performed as previously described^32.
To assess MPN progenitor and LSC survival and self-renewal in vitro, human primary CD34^+ cells selected from BC CML (n=5), MF (n=9) or age matched normal bone marrow (a-NBM, n=4) were co-cultured with SL/M2 stromal cells for 7-14 days, and then treated with Imetelstat alone or combined with dasatinib for BC CML or Pacritinib for MF. Colony forming and replating assays were performed as previously described^32,33.
FIG. 3A. A schematic illustration of SL/M2 stromal co-cultures established to quantify in vitro MPN-SPC and LSC survival and self-renewal. Human primary CD34^+ cells selected from BC CML (n=5), MF (n=9) or age matched normal bone marrow (a-NBM, n=4) were co-cultured with SL/M2 stromal cells for 7-14 days. […]

[1] = test system: BC CML CD34+ cells engrafted in RAG2-/-yc-/- mice; assay: Humanized BC CML LSC mouse model; type: in vivo
Description: Human CD34^+ cells isolated from MF and BC CML samples (Table S2, illustrated as FIG. 11) were transplanted intravenously into adult NSG-SGM3 (expressing human IL-3, GM-CSF and SCF) mice following 300 cGy of irradiation or intrahepatically into neonatal RAG2^−/− yc^−/− mice, respectively^27,32.
Human CD34^+ cells isolated from MF and BC CML (Table S2) samples were transplanted intravenously into adult NSG-SGM3 (expressing human IL-3, GM-CSF and SCF) mice following
300 cGy of irradiation or intrahepatically into newborn RAG2^−/−[…]c^−/− mice^28,32,34. Post-transplantation (13 to 16 weeks), bone marrow and spleen were collected and analyzed by FACS^32. Mice were treated with vehicle, mismatch or imetelstat at varying doses. Also, MF CD34^+ cells were transduced with pCDH lentivirus control or ADAR1-OE lentivirus with a MOI of 100 for 48 hours, followed by intravenous transplantation into NSG-SGM3 mice to assess the impact of ADAR1 overexpression on MF engraftment.
FIG. 4A. A schema of humanized BC CML LSC and MF SPC mouse models. Human CD34^+ cells sorted from either BC CML or myelofibrosis patient blood or marrow were transplanted into neonatal Rag2^−/−[…]c^−/− mice or intravenously transplanted into adult NSG-S mice. Engrafted BC CML or MF mouse models were randomized into (1) vehicle control, (2) mismatch control, and (3) imetelstat treatment groups (n≥3/group). Bone marrow (BM) and spleen were collected when completing the dosing plan, and the single-cell suspension was analyzed by FACS.

telomere length = assay: FlowFish telomere length assay in LSC mouse models; type: in vivo, human; conditions: imetelstat compared with mismatch control; p<0.05, t test, ANOVA
Method: Telomere length was determined using the Telomere PNA Kit/FITC for Flow Cytometry (Dako, Cat #K5327) with a MACSQuant10 and analyzed with FlowJo software. The Relative Telomere Length (RTL) was calculated by dividing the mean fluorescence intensity (MFI) of the test sample G0/G1 population by the MFI of the normal peripheral blood reference G0/G1 population using the Cycletest™ Plus DNA Kit (BD, Cat #340242). Telomerase activity was determined using the TRAPeze Kit RT Telomerase Detection Kit (Millipore, Catalog No. S7710).
Samples were selected from engrafted mouse bone marrow or spleen with human CD45+ immunomagnetic beads (Miltenyi). Telomere length was determined by using the Telomere PNA Kit/FITC for Flow Cytometry (Dako, Cat #K5327). Samples were run on the MACSQuant10 and analyzed with FlowJo software. The Relative Telomere Length (RTL) was calculated. The 1301 cell line was utilized as control cells. The DNA index was determined with the (BD Cycletest™ Plus DNA Kit, Cat #340242). The DNA index was obtained by dividing the MFI of the test sample G0/G1 population by the WI of the normal reference G0/G1 population. Human peripheral blood mononuclear cells were used as “the normal reference G0/G1 population” for calculating the DNA index. Telomerase activity was determined by using TRAPeze Kit RT Telomerase Detection Kit (Millipore, Catalog No. S7710). […]

ABL1 = ABL1 expression in human CD45+ cells from treated BC CML mice; type: in vivo; conditions: p=0.02
Description: FIG. 5F. Boxplot depicting Log 2 (cpm) expression of ABL1 by RNA-seq analysis of human CD45^+ cells isolated from vehicle (red), mismatch control (blue) and imetelstat (green) treated BC CML mouse cells (Student's t-test: vehicle: p=0.037, imetelstat: p=0.02).

[2] = test system: normal cord blood CD34+ cells; assay: Normal HSC (cord blood CD34+) engrafted mouse model; type: in vivo, mice
Method: FIG. 9A-B graphically illustrate data showing that normal HSC mouse xenograft models were established with normal cord blood CD34^+ cells by intrahepatic injection into neonatal Rag2^−/− c^−/− mice; FACS analysis of mice treated with either vehicle (0.9% NS), mismatch control (30 mg/kg) or imetelstat (30 mg/kg) followed by quantification of human CD45^+ cells in BM (FIG. 9A) and in spleen (FIG. 9B);

[3] = 30 mg/kg imetelstat three times a week for 4 weeks, 5 different BC CML, vs vehicle controls

Substance: imetelstat
- BC CML LSC replating (self-renewal) capacity (BC CML CD34+ cells (LSC)): ineffective
- human CD45+ cell proliferation / engraftment [1, 3]: significant reduction; also recorded: reduced
- malignant progenitor proliferation / engraftment [1, 3]: significant reduction; also recorded: reduced
- splenomegaly ([1]; BC CML xenograft): decreases splenomegaly
- telomere length (FlowFish assay) (telomere length): normalization of telomere length
- ABL1 expression (ABL1): significantly reduced
- effect on normal hematopoietic stem cells ([2]; at doses reducing malignant RNA editing): spared normal hematopoietic stem cells
- normal cord blood engraftment (human CD45+ cells) ([2]; imetelstat 30 mg/kg vs vehicle and mismatch control, BM and spleen): no significant decrease; also recorded: does not reduce
